Entries after “also recorded” stand apart in the source; their conditions may differ. Some results are limits rather than exact numbers.

The target of one assay is T1, hSTING (Homo sapiens, UniProt Q86WV6).
T1 construct: SUMO; made in house; host or cells: E. coli Rosetta 2 (pLysS)
Kind of assay: STING based fluorescence polarization assay (F-c-di-GMP probe displacement). Type of assay: binding. The note with it: 20 μM compound, 50 nM probe, 10 μM STING, 5 minutes; compared to HSD1077. As to the method:
As a preliminary screen, 20 μM of compounds and 50 nM of the probe were incubated with 10 μM of STING for 5 minutes prior to evaluation of fluorescence anisotropy.
50 nM of 2′-Fluo-AHC-c-diGMP (Biolog) was incubated with 10 μM hSTING and 20 μM of screening compounds in dimethyl sulfoxide (DMSO) for 5 minutes in 1× Phosphate buffered saline at room temperature. […] Anisotropy was normalized via equating measurements with 0 μM hSTING to zero. […] Anisotropy was converted to a fraction bound by F-c-di-GMP using the following equation: […]
wherein r refers to the anisotropy value at 10 μM hSTING concentration upon compound addition, rfree refers to the anisotropy value of unbound fluorophore, and Q refers to the ratio of fluorescence intensities between bound and free fluorophore.

The test system of a further assay is RAW ISG Blue cells. Kind of assay: Detection of IRF activation in RAW ISG Blue reporter cells (SEAP, QUANTI-Blue). Type of assay: cell-based, murine. The text has this:
To understand possible modulatory effects of compound HSD1077 on the cGAS-STING axis, the quantification of type 1 interferon expression in-cellulo upon compound HSD1077 treatment, investigated via a commercially available murine macrophage cell line RAW ISG Blue, which express secreted embryonic alkaline phosphatase (SEAP) under the control of an interferon-stimulated gene 54 (ISG54), inducible promoter. Upon the stimulation of pathways, such as cGAS-STING, which activate type 1 interferon production, SEAP would be expressed and can be quantified using a chromogenic detection substrate Quantiblue™. […] Excitedly, concentrations as low as 20 nM caused a noticeable decrease in interferon expression (FIG. 8).
After which, media from each respective well was collected for estimation of IRF activation via SEAP colorimetric assay via QUANTI-blue reagent (Invivogen) as per manufacturer protocols, using a clear 96 well flat bottom plate. 20 μL of the media obtained in each individual well was incubated with 180 μL of QUANTI-Blue™ Solution for 6 hours at 37° C. Absorbance (630 nm) of each well was quantified via Biotek Cytation 5 multi-mode reader.

The test system of the next assay is THP-1 dual cells. Kind of assay: Detection of IRF activation in THP-1 dual reporter cells (Lucia luciferase, QUANTI-Luc), cGAMP stimulation. The note with it: then 2'-3' cGAMP 24 hours.
The subject of another assay is Raw ISG cells. Briefly: Western blotting of p-STING and p-IRF3 in Raw ISG cells. It is filed as cell-based, murine. As to conditions: 5 μM for 4 hours, then 100 μM cGAMP 3 hours; vs DMSO+cGAMP. In general terms: Immunoblotting shows a protein as a band on a membrane.
A further assay concerns RAW ISG Blue macrophages. Briefly: Interferon-β mRNA levels in RAW cells via qPCR. Type of assay: cell-based, murine. As to conditions: pre-treatment 6 hours, then 100 μM cGAMP 3 hours; vs DMSO-treated cells stimulated with cGAMP. As to the method: FIG. 8B illustrates RAW ISG cells were pre-treated with either compound HSD1077 or compound H-151 as a positive control for 6 hours and subsequently stimulated with 100 μM of cGAMP for 3 hours for induction of Interferon-β. mRNA levels were quantified by RT-PCR. Gene expression was normalized with β-actin. Experiments were performed in two biological replicates. Error bars indicate the error of the mean of two independent experiments.
As a secondary analysis, mRNA levels of murine Interferon-β were also quantified via quantitative PCR (qPCR), upon cGAMP stimulation on RAW macrophages with or without compound HSD1077 pre-treatment.
1×10^6 cells were seeded in 6 well plates and incubated for 24 hours to allow for adherence. […] Cells were subsequently harvested, and RNA extraction was performed via the use of TRIzol reagent (Thermo-fisher). 1 μg of RNA harvested from each sample was used for cDNA synthesis using random hexamers, dNTPs, and superscript II reverse transcriptase (Thermo-fisher). […] The forward and reverse primers for the relative quantification of Interferon-β and β-actin were used as reported in Wiser C, Science Reports, 2020, 10, 1-11 and Wang M, ACS Chemical Biology, 2021, 16, 1663-1670, which are hereby specifically incorporated by reference for its teachings regarding the same.
For orientation: Real-time PCR tracks product formation cycle by cycle.

T1 sequence (Q86WV6 whole entry H232R): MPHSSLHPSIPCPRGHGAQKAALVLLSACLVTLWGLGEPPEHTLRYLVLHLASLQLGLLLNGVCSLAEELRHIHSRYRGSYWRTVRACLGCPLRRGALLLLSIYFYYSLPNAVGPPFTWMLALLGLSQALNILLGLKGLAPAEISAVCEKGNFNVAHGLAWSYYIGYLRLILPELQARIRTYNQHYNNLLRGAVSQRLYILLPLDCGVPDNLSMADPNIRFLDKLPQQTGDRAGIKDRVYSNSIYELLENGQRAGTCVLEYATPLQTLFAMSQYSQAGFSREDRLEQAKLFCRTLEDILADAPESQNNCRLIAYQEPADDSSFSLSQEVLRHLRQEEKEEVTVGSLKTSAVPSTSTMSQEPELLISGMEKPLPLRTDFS
Procedure for THP-1 dual cells: Using THP-1 dual cell lines (Invivogen) featuring a luciferase gene under the control of an ISG54 inducible promoter, relative quantifications of type 1 interferon expression could be achieved through luciferase detection upon cGAS-STING pathway induction.
1×10^5 cells were seeded in 96 well plates and incubated for 24 hours. After which, cells were pre-treated with the drug compound for 1 hour, followed by 100 μM of 2′-3′ cGAMP for induction of the cGAS-STING pathway, and incubated for 24 hours. After which, cell suspension from each respective well was collected and for relative quantification of IRF activation via Lucia luciferase based luminescent assay via QUANTI-Luc™ reagent (Invivogen). 10 μL of the cell suspension obtained in each individual well was added to 50 μL of QUANTI-Luc™ Solution. […] Experiments were performed in biological triplicates, with data reported as the mean and standard deviation of 3 data points.

As to “(2-fluoro-4-(8,9,10,11-tetrahydro-3H-pyrazolo[4,3-a]phenanthridin-7-yl)phenyl) (4-methylpiperazin-1-yl)methanone [Compound 27]”, on hSTING, the “STING binding (fraction of F-c-di-GMP probe bound, Fbound), in words” value is given as “negatively affected STING binding”.
Consider `CCn1nc(C)cc1C(=O)Nc1nc2cc(C(N)=O)cc(OC)c2n1C/C=C/Cn1c(NC(=O)c2cc(C)nn2CC)nc2cc(C(N)=O)cc(OCCCN3CCOCC3)c21` [DIABZI-3, reference compound], for which the “STING binding (fraction of F-c-di-GMP probe bound, Fbound), in words” value on hSTING is “high probe displacement”.
The same measure, in the same setting: next, `CN1CCN(C(=O)c2ccc(-c3nc4ccc5[nH]ncc5c4c4c3CCCC4)cc2)CC1` [Compound 21, (4-methylpiperazin-1-yl) (4-(8,9,10,11-tetrahydro-3H-pyrazolo[4,3-a]phenanthridin-7-yl)phenyl)methanone]: “reduced binding capabilities”.
Still for that read-out and setting: to `O=C1c2ccccc2C(=O)N1C1CCc2c(c(-c3cn[nH]c3)nc3ccc4[nH]ncc4c23)C1` (stereo not drawn) [Compound 16, 2-(7-(1H-pyrazol-4-yl)-8,9,10,11-tetrahydro-3H-pyrazolo[4,3-a]phenanthridin-9-yl)isoindoline-1,3-dione] belongs “not well tolerated”; to `c1n[nH]cc1-c1nc2ccc3[nH]ncc3c2c2c1CCC2` [Compound 10], “reduced STING binding”.
The same measure, in the same setting: next, `Cn1ncc2c3c4c(c(-c5cn[nH]c5)nc3ccc21)CCCC4` [Compound 7, 3-Methyl-7-(1H-pyrazol-4-yl)-8,9,10,11-tetrahydro-3H-pyrazolo[4,3-a]phenanthridine]: “poor STING binder”; `CN1CCN(C(=O)c2ccc(-c3nc4c(F)cc5[nH]ncc5c4c4c3CCCC4)cc2)CC1` [Compound 26, (4-(5-fluoro-8,9,10,11-tetrahydro-3H-pyrazolo[4,3-a]phenanthridin-7-yl)phenyl) (4-methylpiperazin-1-yl)methanone]: “negatively affected STING binding”.
As to `c1n[nH]cc1-c1nc2ccc3[nH]ncc3c2c2c1CCCC2` [HSD1077, 7-(1H-pyrazol-4-yl)-8,9,10,11-tetrahydro-3H-pyrazolo[4,3-a]phenanthridine], the “type 1 interferon production on treatment with compound alone (agonism)” value in the assay on RAW ISG Blue cells (24 hours, no cGAMP) is “did not induce type 1 interferon production; also recorded: non-significant changes in interferon expression levels”. For the same compound, the “type 1 interferon expression after pre-treatment and cGAMP induction” value in the assay on RAW ISG Blue cells (pre-treatment (1 μM or lower) 2 hours, then 100 μM 2'-3' cGAMP 24 hours) is “can suppress type-1 interferon expression; also recorded: dose-dependent attenuation in type 1 interferon expression; also recorded: attenuated expression of type 1 interferon in a dose-dependent manner”. In the assay on RAW ISG Blue cells (pre-treatment before cGAMP), the “concentration causing a noticeable decrease in interferon expression” value is on record as no more than 20 nM. The “type 1 interferon expression after pre-treatment and cGAMP stimulation” value with THP-1 dual cells is reported as “can suppress type-1 interferon expression; also recorded: reduced type 1 interferon expression in a dose-dependent manner; also recorded: attenuated expression of interferon in a dose-dependent manner”. Moreover, in the assay on Raw ISG cells, the phospho-IRF3 level result is on record as “decreased levels; also recorded: attenuates” and the phospho-STING level result was “decreased levels; also recorded: attenuates”. Also, in the assay with RAW ISG Blue macrophages, the “murine Interferon-β mRNA levels” value is “dose-dependent reduction in murine Interferon-β levels”.
For `CC(=O)N1CCN(C(=O)c2ccc(-c3nc4ccc5[nH]ncc5c4c4c3CCCC4)cc2)CC1` [Compound 22, 1-(4-(4-(8,9,10,11-tetrahydro-3H-pyrazolo[4,3-a]phenanthridin-7-yl)benzoyl)piperazin-1-yl)ethan-1-one], the “STING binding (fraction of F-c-di-GMP probe bound, Fbound), in words” value at hSTING was “reduced binding capabilities”.
`c1cc(-c2nc3ccc4[nH]ncc4c3c3c2CCCC3)n[nH]1` [Compound 19, 7-(1H-pyrazol-3-yl)-8,9,10,11-tetrahydro-3H-pyrazolo[4,3-a]phenanthridine]: the “STING binding (fraction of F-c-di-GMP probe bound, Fbound), in words” value at hSTING is “significant decrease in STING binding”.
For `COc1cc2nc(-c3cn[nH]c3)c3c(c2cc1OC)CCCC3` [Compound 2, 2,3-Dimethoxy-6-(1H-pyrazol-4-yl)-7,8,9,10-tetrahydrophenanthridine], on hSTING, the “STING binding (fraction of F-c-di-GMP probe bound, Fbound), in words” value is reported as “significant decrease in STING binding”.
With `CCc1cc(-c2cn[nH]c2)nc2ccc3[nH]ncc3c12` [Compound 9, 9-Ethyl-7-(1H-pyrazol-4-yl)-3H-pyrazolo[4,3-f]quinoline], the “STING binding (fraction of F-c-di-GMP probe bound, Fbound), in words” value on hSTING is on record as “reduced STING binding”.
Turning to `Cn1cc(-c2nc3ccc4[nH]ncc4c3c3c2CCCC3)cn1` [Compound 20, 7-(1-Methyl-1H-pyrazol-4-yl)-8,9,10,11-tetrahydro-3H-pyrazolo[4,3-a]phenanthridine], at hSTING, the “STING binding (fraction of F-c-di-GMP probe bound, Fbound), in words” value was “reduced binding capabilities”.
On the same count and under the same terms, next, `CN1CCN(C(=O)c2ccc(-c3nc4ccc5[nH]ncc5c4c4c3CCC4)cc2)CC1` [Compound 24, (4-methylpiperazin-1-yl) (4-(3,8,9,10-tetrahydrocyclopenta[c]pyrazolo[4,3-f]quinolin-7-yl)phenyl)methanone]: “negatively impacted STING binding”; “7-(1H-pyrazol-4-yl)-8,9,10,11-tetrahydro-3H-imidazo[4,5-a]phenanthridine [Compound 17]”: “not well tolerated”.
As to `CN1CCN(C(=O)c2ccc(-c3nc4ccc5[nH]ncc5c4c4c3CCCC4)c(F)c2)CC1` [Compound 28, (3-fluoro-4-(8,9,10,11-tetrahydro-3H-pyrazolo[4,3-a]phenanthridin-7-yl)phenyl) (4-methylpiperazin-1-yl)methanone], the “STING binding (fraction of F-c-di-GMP probe bound, Fbound), in words” value at hSTING is given as “generally retained STING binding”.
In the case of `c1n[nH]cc1-c1nc2ccc3c(c2c2c1CCCC2)OCO3` [Compound 3, 7-(1H-pyrazol-4-yl)-8,9,10,11-tetrahydro-[1,3]dioxolo[4,5-a]phenanthridine], on hSTING, the “STING binding (fraction of F-c-di-GMP probe bound, Fbound), in words” value is “significant decrease in STING binding”.
Take `CN1CCN(C(=O)c2ccc(-c3nc4ccc5[nH]ncc5c4c4c3CCCCC4)cc2)CC1` [Compound 23]: the “STING binding (fraction of F-c-di-GMP probe bound, Fbound), in words” value on hSTING is on record as “negatively impacted STING binding”.
